Test results reported in ChEMBL document CHEMBL4613212, “Insights of synthetic analogues of anti-leprosy agents” (Bioorg Med Chem, 2019).
Converted amounts (≈) assume the structure as drawn.

What was measured:
[1] = test system: Monocyte; assay: Antiinflammatory activity in human monocytes assessed as inhibition of LPS-induced TNFaplha production at 50 uM preincubated for 15 mins followed by LPS addition and measured after 4 hrs by ELISA relative to control; format: functional
[2] = test system: Monocyte; assay: Antiinflammatory activity in human monocytes assessed as inhibition of LPS-induced TNFaplha production at 25 uM preincubated for 15 mins followed by LPS addition and measured after 4 hrs by ELISA relative to control; format: functional
[3] = Cytotoxicity against LPS-induced human monocytes assessed as cell viability at 50 uM by tryphan blue staining based assay relative to control; parameters: species or system Monocyte; settings: read-out: Activity
[4] = Inhibition of Mycobacterium smegmatis ATCC 607 dihydrofolic reductase; parameters: species or system Mycolicibacterium smegmatis
[5] = test system: Mycolicibacterium smegmatis; assay: Inhibition of Mycobacterium smegmatis ATCC 607 dihydrofolic reductase assessed as ratio of Km to Ki
[6] = test system: Mycolicibacterium smegmatis; assay: Antimicrobial activity against Mycobacterium smegmatis ATCC 607; format: functional; settings: Mycolicibacterium smegmatis, ATCC 607; read-out: MIC
[7] = test system: Mycolicibacterium smegmatis; assay: Antimycobacterial activity against Mycobacterium smegmatis mc2 155 incubated for 2 days by spectrophotometric based assay; format: functional; settings: MC2 155, 48 h
[8] = test system: Mycolicibacterium smegmatis; assay: Antimicrobial activity against Mycobacterium smegmatis incubated for 24 hrs by broth microdilution assay; format: functional
[9] = test system: Mycolicibacterium aurum; assay: Antimicrobial activity against Mycobacterium aurum incubated for 24 hrs by broth microdilution assay; format: functional
[10] = test system: Mycolicibacterium vaccae; assay: Antimicrobial activity against Mycobacterium vaccae incubated for 24 hrs by broth microdilution assay; format: functional
[11] = test system: Mycolicibacterium fortuitum; assay: Antimicrobial activity against Mycobacterium fortuitum incubated for 24 hrs by broth microdilution assay; format: functional
[12] = test system: Mycobacterium leprae; assay: Anti-leprotic activity against Mycobacterium leprae infected in 538 CBA mouse assessed as number of Mycobacterium leprae in paw pads at 2 mg/kg administrated via gastric tube 5 times a week and measured 7 months post infection; format: functional
[13] = test system: Mycobacterium leprae; assay: Anti-leprotic activity against Mycobacterium leprae infected in 538 CBA mouse assessed as number of Mycobacterium leprae in paw pads at 6 mg/kg administrated via gastric tube 5 times a week and measured 7 months post infection; format: functional
[14] = test system: Enterococcus faecalis; assay: Antimicrobial activity against Enterococcus faecalis ATCC 29212 by broth microdilution assay; format: functional
[15] = test system: Staphylococcus aureus; assay: Antimicrobial activity against Staphylococcus aureus ATCC 25923 by broth microdilution assay; format: functional
[16] = test system: Enterococcus faecalis; assay: Antimicrobial activity against Enterococcus faecalis ATCC 51922 by broth microdilution assay; format: functional
[17] = test system: Listeria monocytogenes; assay: Antimicrobial activity against Listeria monocytogenes ATCC 1911 by broth microdilution assay; format: functional
[18] = test system: Klebsiella pneumoniae; assay: Antimicrobial activity against Klebsiella pneumoniae 700603 by broth microdilution assay; format: functional
[19] = test system: Pseudomonas aeruginosa; assay: Antimicrobial activity against Pseudomonas aeruginosa ATCC 27853 by broth microdilution assay; format: functional
[20] = test system: Escherichia coli; assay: Antimicrobial activity against Escherichia coli ATCC 35218 by broth microdilution assay; format: functional
[21] = test system: Escherichia coli; assay: Antimicrobial activity against Escherichia coli ATCC 25922 by broth microdilution assay; format: functional
[22] = test system: Mycobacterium tuberculosis; assay: Antitubercular activity against Mycobacterium tuberculosis H37Rv ATCC 27294 incubated for 7 days by microplate alamar blue assay; format: functional; settings: H37Rv ATCC 27294, 168 h
[23] = test system: Plasmodium berghei; assay: Antimalarial activity against Plasmodium berghei infected in albino mouse assessed survival against infection at 400 mg/kg, sc administered as single dose; format: functional
[24] = test system: Mycobacterium leprae; assay: Anti-leprotic activity against Mycobacterium leprae infected in albino mouse assessed survival against infection at 400 mg/kg, sc administered 58 days post-infection and subsequent compound dosing at 200 mg/kg at 0.5, 1 or 2 months interval; format: functional
[25] = Drug excretion in rat urine at 400 mg/kg, sc administered as single dose measured after 30 days; format: ADME, organism-based; settings: read-out: Drug excretion
[26] = Half life in rat at 400 mg/kg, sc administered as single dose; format: ADME, organism-based; settings: in vivo

SMILES: O=C1c2cccc([N+](=O)[O-])c2C(=O)N1c1cn(-c2ccccc2)c(=O)[nH]c1=O
- inhibition at 50 µM [1]: < 10%
- inhibition at 25 µM [2]: < 10%
- viability at 50 µM [3]: 90%

SMILES: CC(C)Cc1cnc2nc(N)nc(N)c2n1
- Ki [4]: 0.9 nM
- Ratio [5]: 4560
- MIC [6]: 688 µM (≈ 150 µg/mL)

SMILES: CCCCCCCCC(COC1CCCC1)C(=O)O (stereo not given)
- MIC99 [7]: 3.6 mM (≈ 973 µg/mL)

SMILES: O=C1c2ccccc2C(=O)N1c1ccc(S(=O)(=O)Nc2cnccn2)cc1
- MIC99 [7]: 6.8 mM (≈ 2590 µg/mL)

SMILES: CC(C)CCc1cnc2nc(N)nc(N)c2n1
- Ki [4]: 1 nM
- Ratio [5]: 4100
- MIC [6]: 775 µM (≈ 180 µg/mL)

SMILES: N#Cc1cc([N+](=O)[O-])cnc1SC(=S)N1CCCC1
- MIC [8]: 3.12 µg/mL (≈ 10.6 µM)
- MIC [9]: 1.56 µg/mL (≈ 5.3 µM)
- MIC [10]: 1.56 µg/mL (≈ 5.3 µM)
- MIC [11]: 1.56 µg/mL (≈ 5.3 µM)
- Activity [12]: 0.56 ×10⁷ No_unit
- Activity [13]: 0.28 ×10⁷ No_unit

SMILES: O=C1c2ccccc2C(=O)N1c1cnc(S(=O)(=O)Nc2ccccn2)cn1
- MIC99 [7]: 3 mM (≈ 1140 µg/mL)

SMILES: O=C1c2c(F)c(F)c(F)c(F)c2C(=O)N1c1cn(-c2ccccc2)c(=O)[nH]c1=O
- inhibition at 50 µM [1]: < 10%
- viability at 50 µM [3]: 95%

SMILES: CCCCCCCCC(CCC1CCCO1)C(=O)O (stereo not given)
- MIC99 [7]: 9.6 mM (≈ 2600 µg/mL)

SMILES: CCCCc1cnc2nc(N)nc(N)c2n1
- Ki [4]: 1 nM
- Ratio [5]: 4100
- MIC [6]: 917 µM (≈ 200 µg/mL)

SMILES: O=C1c2ccccc2C(=O)N1c1ccc(S(=O)(=O)Nc2ccncn2)cc1
- MIC99 [7]: 2.3 mM (≈ 875 µg/mL)

SMILES: CN(C)c1ccc(/C=N/NC(=S)Nc2ccc(C(F)(F)F)cc2)cc1
- MIC [14]: 400 µg/mL (≈ 1090 µM)
- MIC [15]: 400 µg/mL (≈ 1090 µM)
- MIC [16]: 400 µg/mL (≈ 1090 µM)
- MIC [17]: 400 µg/mL (≈ 1090 µM)
- MIC [18]: 400 µg/mL (≈ 1090 µM)
- MIC [19]: 400 µg/mL (≈ 1090 µM)
- MIC [20]: 400 µg/mL (≈ 1090 µM)
- MIC [21]: 400 µg/mL (≈ 1090 µM)
- MIC [22]: 200 µg/mL (≈ 546 µM)

SMILES: Nc1nc(N)c2nc(CNc3ccc(C(=O)N[C@@H](CCC(=O)O)C(=O)O)cc3)cnc2n1 [AMINOPTERIN]
- Ki [4]: 0.18 nM
- Ratio [5]: 23100
- MIC [6]: 742 µM (≈ 327 µg/mL)

SMILES: Cc1ccc(/C=N/NC(=S)Nc2ccc(C(F)(F)F)cc2)cc1
- MIC [14]: 400 µg/mL (≈ 1190 µM)
- MIC [15]: 400 µg/mL (≈ 1190 µM)
- MIC [16]: 400 µg/mL (≈ 1190 µM)
- MIC [17]: 800 µg/mL (≈ 2370 µM)
- MIC [18]: 400 µg/mL (≈ 1190 µM)
- MIC [19]: 400 µg/mL (≈ 1190 µM)
- MIC [20]: 800 µg/mL (≈ 2370 µM)
- MIC [21]: 400 µg/mL (≈ 1190 µM)
- MIC [22]: 200 µg/mL (≈ 593 µM)

SMILES: FC(F)(F)c1ccc(NC(=S)N/N=C/c2ccccc2)cc1
- MIC [14]: 200 µg/mL (≈ 619 µM)
- MIC [15]: 400 µg/mL (≈ 1240 µM)
- MIC [16]: 400 µg/mL (≈ 1240 µM)
- MIC [17]: 400 µg/mL (≈ 1240 µM)
- MIC [18]: 400 µg/mL (≈ 1240 µM)
- MIC [19]: 400 µg/mL (≈ 1240 µM)
- MIC [20]: 400 µg/mL (≈ 1240 µM)
- MIC [21]: 400 µg/mL (≈ 1240 µM)
- MIC [22]: 200 µg/mL (≈ 619 µM)

SMILES: COc1ccc(/C=N/NC(=S)Nc2ccc(C(F)(F)F)cc2)cc1
- MIC [14]: 400 µg/mL (≈ 1130 µM)
- MIC [15]: 400 µg/mL (≈ 1130 µM)
- MIC [16]: 400 µg/mL (≈ 1130 µM)
- MIC [17]: 800 µg/mL (≈ 2260 µM)
- MIC [18]: 400 µg/mL (≈ 1130 µM)
- MIC [19]: 400 µg/mL (≈ 1130 µM)
- MIC [20]: 800 µg/mL (≈ 2260 µM)
- MIC [21]: 400 µg/mL (≈ 1130 µM)
- MIC [22]: 200 µg/mL (≈ 566 µM)

SMILES: CN(Cc1cnc2nc(N)nc(N)c2n1)c1ccc(C(=O)N[C@@H](CCC(=O)O)C(=O)O)cc1 [METHOTREXATE]
- Ki [4]: 0.35 nM
- Ratio [5]: 11700
- MIC [6]: 2200 µM (≈ 1000 µg/mL)

SMILES: Cc1cnc2nc(N)nc(N)c2n1
- Ki [4]: 5100 nM
- Ratio [5]: 0.8
- MIC [6]: > 568 µM

SMILES: COc1cc(Sc2cnc(N)nc2N)cc(OC)c1Br
- Activity [12]: 0.66 ×10⁷ No_unit
- Activity [13]: 0.02 ×10⁷ No_unit

SMILES: CC(=O)N(C)c1ccc(S(=O)(=O)c2ccc(N(C)C(C)=O)cc2)cc1
- Survival [23]: 9 weeks
- Survival [24]: >8 weeks
- dose excreted at 720 h [25]: 85%
- half-life [26]: 10 days

SMILES: CCC1(N2C(=O)c3c(F)c(F)c(F)c(F)c3C2=O)C(=O)NC(=O)N(c2ccccc2)C1=O (stereo not given)
- inhibition at 50 µM [1]: 16%
- viability at 50 µM [3]: 68%

SMILES: O=C1c2c(F)c(F)c(F)c(F)c2C(=O)N1c1cnc(O)nc1O
- inhibition at 50 µM [1]: < 10%
- viability at 50 µM [3]: 95%
